These results are taken from patent US20030228395A1, “Isotropic transparent structured fluids” (Archer-Daniels Midland Company, priority 2002, published 2003).

A short description of data set [1]: Effect of pH on stability of micro-emulsions. The format is physicochemical. As to conditions: maximum tocopherol acetate, line 6.4 of Example 1, dilutions 50%, 60%, 70%, 80%; buffer pH 3.4, 3.8, 5.4, 7.0, 8.6 replacing water. An excerpt: A buffer of different pH values (3.4, 3.8, 5.4, 7.0 and 8.6) replaced the water in the aqueous phase.
The text on data set [2]: FIG. 6. […] The values assign the maximum amount of vitamin E that can be solubilized as a wt/wt percentage of the total micro-emulsion weight.
The maximum amount of vitamin E solubilized was compared among the different forms of vitamin E along line 6:4 in the five-component system of D-limonene/ethanol (1/1) as the oil phase, TWEEN 60 as surfactant, and water/1,2-propanediol (1/1) as the aqueous phase, in order to obtain insight into the difference in their interfacial behavior (FIG. 6).

Take `CC(=O)Oc1c(C)c(C)c2c(c1C)CCC(C)(CCC[C@H](C)CCC[C@H](C)CCCC(C)C)O2` (stereo partly drawn) [Tocopherol Acetate, tocopherol acetate]: in data set [1], the “stability of micro-emulsions at different pH” value is listed as “stable for over two months”.
Regarding `Cc1c(C)c2c(c(C)c1O)CC[C@@](C)(CCC[C@H](C)CCC[C@H](C)CCCC(C)C)O2` [alpha-tocopherol], in data set [2], the “solubilization capacity along the dilution line” value is “two main dramatic decreases in solubilization, after which a stabilization in solubilization is maintained” and the “solubilization capacity when D-limonene was replaced by triacetin” value is recorded as “increased along all of the dilution line”.
